Data as given in patent publication US20250241879A1, “CAPSAICIN SEQUENTIAL DOSING METHOD FOR TREATMENT OF KNEE JOINT PAIN” (priority 2018, published 2025).

What was measured:
[1] = system: human patients with chronic knee osteoarthritis; experiment: Treatment-emergent adverse events, SAEs and laboratory abnormalities after single intra-articular injection (Example 2); assay type: in vivo; conditions: for All TEAEs, (%) / Arthralgia TEAE, (%) / Hepatic enzyme increased TEAE, (%) / Influenza TEAE, (%) / Joint effusion TEAE, (%) / Nasopharyngitis TEAE, (%) / Upper respiratory tract infection TEAE, (%): through 24 weeks
Experimental: Human patients experiencing osteoarthritic knee joint pain received either placebo, a 0.5 mg intra-articular injection of capsaicin into the osteoarthritic knee joint, or a 1.0 mg intra-articular injection of capsaicin into the osteoarthritic knee joint. […]
(§1) Human patients aged 45-80 years with chronic knee osteoarthritis, stable moderate to severe pain, and intolerability to analgesics were randomized to receive a single intra-articular injection of placebo into the osteoarthritic knee, a single intra-articular injection of a 0.5 mg dose of capsaicin into the osteoarthritic knee, or a single intra-articular injection of a 1.0 mg dose of capsaicin into the osteoarthritic knee.
(§2) Safety assessments included treatment-emergent adverse events (TEAEs), serious AEs (SAEs), laboratory abnormalities, and procedural pain ratings (none, mild, moderate, moderately severe, severe). The procedure pain ratings characterize the extent of transient burning sensation experienced by patients due to administration of capsaicin.

[2] = system: osteoarthritic knee joint pain; experiment: WOMAC C function subscale (Example 2); assay type: in vivo, human; conditions: 1.0 mg dose; through week 16; P=0.02
Experimental: as §1
(§3) Patients completed Patient Global Impression of Change (PGIC; change vs baseline in index knee on 7-point scale: 1=very much improved; 7=very much worse, with scores of 1 or 2 indicating significant improvement) and Patient-specific Functional Scale (PSFS; rate≤3 important activities difficult to perform due to index knee pain on 0-10 scale: 0=able to perform; 10=unable to perform) at scheduled visits. Odds ratios for PGIC scores were calculated with chi-square tests. Changes in Western Ontario and McMaster Universities Osteoarthritis Index (WOMAC) B stiffness subscale and WOMAC C function subscale through week 24 were also assessed. PSFS, WOMAC B, and WOMAC C scores were evaluated using a mixed model for repeated measures. Statistical tests were 2-sided (alpha, P=0.10).

[3] = system: osteoarthritic knee joint pain; experiment: Patient Global Impression of Change (PGIC), index knee (Example 2); assay type: in vivo, human; conditions: for PGIC: proportion of patients reporting significant improvement in the index knee: week 4, placebo 44%
Experimental: as §1, §3

[4] = system: human patients with chronic knee osteoarthritis; experiment: Procedural pain ratings (none, mild, moderate, moderately severe, severe) after intra-articular injection (Example 2); assay type: in vivo; conditions: 2 hours after injection of capsaicin (or placebo); all groups
Source text: as §2

[5] = system: human patients with bilateral knee osteoarthritis; experiment: Procedure pain (NPRS) due to intraarticular trans-capsaicin, Breg pad vs ice pack cooling (Example 7); assay type: in vivo; conditions: Breg Knee WrapOn Polar Pad cooling compared to ice-pack cooling (Example 7)
Experimental: Human patients experiencing osteoarthritic knee joint pain were subjected to two different protocols for intraarticular administration of trans-capsaicin. Temporary pain expected due to administration of capsaicin was analyzed, along with the intraarticular temperature of the knee joint and the temperature of the patient's skin in the area to be cooled.
(§4) One of the protocols utilized a Breg Knee WrapOn Polar Pad (as illustrated in FIG. 1) that utilizes circulating ice-water to achieve cooling, where the pad is placed on skin surrounding the knee in order to cool the knee joint. The other protocol utilized ice-pack cooling, in which the patient's knee was wrapped with a stockinette and then the ice pack was positioned on top of the stockinette so that the ice pack is positioned over the patient's patella to thereby cool the knee joint. The ice pack was a LEADSTAR pain relief reusable cold therapy ice pack (size=6 inches). A temperature probe was placed into the intraarticular space of the patient's knee joint to measure intraarticular temperature of the knee joint. A temperature probe was also placed on the skin in the area to be cooled in order to measure skin temperature in the area to be cooled.
Five human patients suffering from moderate to severe painful bilateral knee osteoarthritis were recruited for this study evaluating the impact that cooling protocol has on the magnitude of temporary pain experienced by the patient due to administration of capsaicin. […] Patients that participated in the study passed the following screening criteria and meet the patient inclusion and exclusion criteria are set forth below. As part of patient screening, patients received an intradermal injection of 100 μL (100 μg) capsaicin into the non-dominant volar forearm. To be eligible to enter the study, patients were able to tolerate the capsaicin injection. Screening patients rated the pain from capsaicin injection at 5, 10, 20, and 30 minutes after injection using a 0-10 Numerical Pain Rating Scale, where “0” equals no pain and “10” equals worst possible pain.
as §4, with “ice pack (having a surface for application to the patient, wherein said surface has a diameter of approximately six inches) is positioned” for “ice pack is positioned”, “knee joint. A temperature” for “knee joint. The ice pack was a LEADSTAR pain relief reusable cold therapy ice pack (size=6 inches). A temperature”, “knee joint. At the discretion of the physician performing the procedure, in order to reduce discomfort for the patient, the protocol authorized the physician to instill a volume of 1-2 cc of 2% w/w lidocaine (without epinephrine) into the skin and subcutaneous tissue of the knee at the site of intra-articular probe insertion. A temperature” for “knee joint. A temperature”
One the first day of the study, patients were randomized so that (i) three patients receiving cooling of the knee joint using the Breg Knee WrapOn Polar Pad and (ii) two patients will receive ice-pack cooling over the patella as set forth above. Patients were subjected to the following procedure: • Placement of intraarticular temperature probe and skin temperature probe. […]

[6] = system: osteoarthritic knee joint pain; experiment: WOMAC B stiffness subscale (Example 2); assay type: in vivo, human; conditions: 1.0 mg dose; through week 16; P=0.007
Experimental: as §1, §3

[7] = system: osteoarthritic knee joint pain; experiment: Patient-specific Functional Scale (PSFS) (Example 2); assay type: in vivo, human
Experimental: as §1, §3

[8] = Capsaicin 1.0 mg Dose (n = 71), listed as capsaicin
[9] = Capsaicin at Either 0.5 mg or 1.0 Dose (n = 105)
[10] = Capsaicin at Either 0.5 mg or 1.0 Dose (n = 105), listed as capsaicin
[11] = Capsaicin at 0.5 mg Dose, Week 4
[12] = Capsaicin at 0.5 mg Dose, Week 8
[13] = Capsaicin at 0.5 mg Dose, Week 12
[14] = Capsaicin at 0.5 mg Dose, Week 16
[15] = Capsaicin at 0.5 mg Dose, Week 24
[16] = Capsaicin at 1.0 mg Dose, Week 4
[17] = Capsaicin at 1.0 mg Dose, Week 8
[18] = Capsaicin at 1.0 mg Dose, Week 12
[19] = Capsaicin at 1.0 mg Dose, Week 16
[20] = Capsaicin at 1.0 mg Dose, Week 24

SMILES: COc1cc(CNC(=O)CCCCC=CC(C)C)ccc1O [Capsaicin, N-[(4-hydroxy-3-methoxyphenyl)methyl]-8-methylnon-6-enamide]
- All TEAEs, (%) ([1]; Capsaicin 0.5 mg Dose (n = 34)): (47) %
- Arthralgia TEAE, (%) ([1]; Capsaicin 0.5 mg Dose (n = 34)): (8.8) %
- Hepatic enzyme increased TEAE, (%) ([1]; Capsaicin 0.5 mg Dose (n = 34)): (5.9) %
- Influenza TEAE, (%) ([1]; Capsaicin 0.5 mg Dose (n = 34)): (2.9) %
- Joint effusion TEAE, (%) ([1]; Capsaicin 0.5 mg Dose (n = 34)): (8.8) %
- Nasopharyngitis TEAE, (%) ([1]; Capsaicin 0.5 mg Dose (n = 34)): (2.9) %
- Upper respiratory tract infection TEAE, (%) ([1]; Capsaicin 0.5 mg Dose (n = 34)): (5.9) %
- All TEAEs, (%) ([1]; Capsaicin 0.5 mg Dose (n = 34), listed as capsaicin): 47%
- All TEAEs, (%) ([1]; Capsaicin 1.0 mg Dose (n = 71)): (30) %
- Arthralgia TEAE, (%) ([1]; Capsaicin 1.0 mg Dose (n = 71)): (7.0) %
- Hepatic enzyme increased TEAE, (%) ([1]; Capsaicin 1.0 mg Dose (n = 71)): (1.4) %
- Influenza TEAE, (%) ([1]; Capsaicin 1.0 mg Dose (n = 71)): (2.8) %
- Nasopharyngitis TEAE, (%) ([1]; Capsaicin 1.0 mg Dose (n = 71)): (2.8) %
- Upper respiratory tract infection TEAE, (%) ([1]; Capsaicin 1.0 mg Dose (n = 71)): (4.2) %
- All TEAEs, (%) [1, 8]: 30%
- Arthralgia TEAE, (%) [1, 8]: 7.0%
- All TEAEs, (%) [1, 9]: (35) %
- Arthralgia TEAE, (%) [1, 9]: (7.6) %
- Hepatic enzyme increased TEAE, (%) [1, 9]: (2.9) %
- Influenza TEAE, (%) [1, 9]: (2.9) %
- Joint effusion TEAE, (%) [1, 9]: (2.9) %
- Nasopharyngitis TEAE, (%) [1, 9]: (2.9) %
- Upper respiratory tract infection TEAE, (%) [1, 9]: (4.8) %
- Arthralgia TEAE, (%) [1, 10]: 7.6%
- Upper respiratory tract infection TEAE, (%) [1, 10]: 4.8%
- Laboratory abnormalities ([1]; all groups, most mild and associated with comorbidities): Few laboratory abnormalities were observed
- TEAEs mild in severity, patients ([1]; capsaicin 0.5 mg dose group): 29%
- TEAEs moderate in severity, patients ([1]; capsaicin 0.5 mg dose group): 18%
- Serious AEs (SAEs) ([1]; capsaicin 0.5 mg dose group, not considered treatment related): One SAE (shoulder pain from osteoarthritis)
- TEAEs mild in severity, patients ([1]; capsaicin 1.0 mg dose group): 20%
- TEAEs moderate in severity, patients ([1]; capsaicin 1.0 mg dose group): 9.9%
- Tolerability / safety profile ([1]; single injection 1.0 mg dose, up to 24 weeks): well tolerated with a safety profile generally comparable to placebo
- WOMAC C score, least squares mean difference versus placebo [2]: −14.8
- PGIC: proportion of patients reporting significant improvement in the index knee ([3]; 0.5 mg dose, P=0.18): 58%
- PGIC: proportion of patients reporting significant improvement in the index knee ([3]; 1.0 mg dose, P=0.01): 64%
- PGIC: likelihood of significant improvement compared with placebo ([3]; 1.0 mg dose, weeks 4, 8 and 12): greater than two-fold likelihood
- PGIC: Odds Ratio vs Placebo [3, 11]: 1.76 (P = 0.18)
- PGIC: Odds Ratio vs Placebo [3, 12]: 1.89 (P = 0.14)
- PGIC: Odds Ratio vs Placebo [3, 13]: 2.75 (P = 0.03)
- PGIC: Odds Ratio vs Placebo [3, 14]: 2.37 (P = 0.05)
- PGIC: Odds Ratio vs Placebo [3, 15]: 1.68 (P = 0.23)
- PGIC: Odds Ratio vs Placebo [3, 16]: 2.34 (P = 0.01)
- PGIC: Odds Ratio vs Placebo [3, 17]: 2.50 (P = 0.008)
- PGIC: Odds Ratio vs Placebo [3, 18]: 2.40 (P = 0.01)
- PGIC: Odds Ratio vs Placebo [3, 19]: 1.85 (P = 0.07)
- PGIC: Odds Ratio vs Placebo [3, 20]: 1.64 (P = 0.15)
- Patients reporting mild procedural pain [4]: 39%
- Patients reporting no procedural pain [4]: 50%
- Pain due to capsaicin injection, comparison of cooling methods [5]: less when Breg Knee WrapOn Polar Pad cooling was used
- WOMAC B score, least squares mean difference versus placebo [6]: −2.1
- PSFS: ability to perform activities versus placebo ([7]; 1.0 mg dose, weeks 4-16): significantly improved patients' ability to perform activities versus placebo
- PSFS: LSMD versus Placebo [7, 11]: 0.01 (P = 0.98)
- PSFS: LSMD versus Placebo [7, 12]: −0.03 (P = 0.96)
- PSFS: LSMD versus Placebo [7, 13]: −0.4 (P = 0.40)
- PSFS: LSMD versus Placebo [7, 14]: −0.5 (P = 0.35)
- PSFS: LSMD versus Placebo [7, 15]: −0.05 (P = 0.93)
- PSFS: LSMD versus Placebo [7, 16]: −1.4 (P = 0.0006)
- PSFS: LSMD versus Placebo [7, 17]: −0.9 (P = 0.03)
- PSFS: LSMD versus Placebo [7, 18]: −1.1 (P = 0.007)
- PSFS: LSMD versus Placebo [7, 19]: −0.9 (P = 0.04)
- PSFS: LSMD versus Placebo [7, 20]: −0.5 (P = 0.27)
- Improvement in physical function versus placebo ([7]; single injection 1.0 mg dose, moderate to severe osteoarthritis knee pain): statistically significant improvements in physical function for 12-16 weeks
